Data taken from PubChem BioAssay AID248 (DTP/NCI, 2004).
Where “and” joins values, the source holds several entries; their conditions need not be identical. Equal values may be shown once. Inconclusive results and toxic doses are left out.

Tested on: L1210 leukemia ip in BDF1 mice, survival T/C
Assay: NCI In Vivo Anticancer Drug Screen. Data for tumor model L1210 Leukemia (intraperitoneal) in B6D2F1 (BDF1) mice
Conditions: endpoint: mean survival time, higher = longer survival
Procedure, shortened: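 Tumor was transplanted into mice, which were then dosed with test compound or vehicle alone. Survival was recorded for each group, and the treated figure was expressed relative to the control figure.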

[1] = dose: 100.0 mg/kg/injection, schedule: Q01DX001 (ip), vehicle: saline
[2] = dose: 2.5 mg/kg/injection, schedule: Q01DX009 (ip), vehicle: saline
[3] = dose: 5.0 mg/kg/injection, schedule: Q01DX009 (ip), vehicle: saline
[4] = dose: 10.0 mg/kg/injection, schedule: Q01DX009 (ip), vehicle: saline
[5] = dose: 50.0 mg/kg/injection, schedule: Q01DX001 (ip), vehicle: saline
[6] = dose: 50.0 mg/kg/injection, schedule: Q01DX009 (ip), vehicle: saline with Tween-80
[7] = dose: 100.0 mg/kg/injection, schedule: Q01DX009 (ip), vehicle: saline with Tween-80
[8] = dose: 100.0 mg/kg/injection, schedule: Q04DX003 (ip), vehicle: saline
[9] = dose: 100.0 mg/kg/injection, schedule: Q04DX003 (ip), vehicle: saline with Tween-80
[10] = dose: 200.0 mg/kg/injection, schedule: Q04DX003 (ip), vehicle: saline with Tween-80
[11] = dose: 400.0 mg/kg/injection, schedule: Q04DX003 (ip), vehicle: saline with Tween-80
[12] = dose: 200.0 mg/kg/injection, schedule: Q04DX003 (ip), vehicle: saline
[13] = dose: 400.0 mg/kg/injection, schedule: Q04DX003 (ip), vehicle: saline
[14] = dose: 100.0 mg/kg/injection, schedule: Q01DX009 (ip), vehicle: Klucel (hydroxypropylcellulose) (HPC)
[15] = dose: 100.0 mg/kg/injection, schedule: Q04DX003 (ip), vehicle: Klucel (hydroxypropylcellulose) (HPC)
[16] = dose: 200.0 mg/kg/injection, schedule: Q01DX009 (ip), vehicle: Klucel (hydroxypropylcellulose) (HPC)
[17] = dose: 200.0 mg/kg/injection, schedule: Q04DX003 (ip), vehicle: Klucel (hydroxypropylcellulose) (HPC)
[18] = dose: 400.0 mg/kg/injection, schedule: Q04DX003 (ip), vehicle: Klucel (hydroxypropylcellulose) (HPC)

CC(=O)OCC1OC(N2C(=O)/C(=C(/C)c3ccccn3)SC2=S)C(OC(C)=O)C(OC(C)=O)C1OC(C)=O (configuration not stated) was tested, and the T/C (dose: 25.0 mg/kg/injection, schedule: Q01DX005 (ip), vehicle: other) was 92 % of control, the T/C (dose: 50.0 mg/kg/injection, schedule: Q01DX005 (ip), vehicle: other) was 97 % of control and the T/C (dose: 100.0 mg/kg/injection, schedule: Q01DX005 (ip), vehicle: other) was 94 % of control. For the same compound, the T/C (dose: 200.0 mg/kg/injection, schedule: Q01DX005 (ip), vehicle: other) was 96 % of control and the T/C (dose: 400.0 mg/kg/injection, schedule: Q01DX005 (ip), vehicle: other) was 96 % of control.

With Cc1c([N+](=O)[O-])cc(C(=O)c2ccccc2C(=O)O)cc1[N+](=O)[O-] the T/C (dose: 75.0 mg/kg/injection, schedule: Q04DX003 (ip), vehicle: Klucel (hydroxypropylcellulose) (HPC)) was 98 % of control, the T/C (dose: 150.0 mg/kg/injection, schedule: Q04DX003 (ip), vehicle: Klucel (hydroxypropylcellulose) (HPC)) was 91 % of control and the T/C (dose: 300.0 mg/kg/injection, schedule: Q04DX003 (ip), vehicle: Klucel (hydroxypropylcellulose) (HPC)) was 91 % of control.

For NC(N)=NCCCC(N)C(=O)NCCCCCCNCCCCCCNC(=O)C(N)CCCN=C(N)N (configuration not stated), the T/C (dose: 1.25 mg/kg/injection, schedule: Q01DX Z (ip), vehicle: saline) was 96 % of control, the T/C (dose: 2.5 mg/kg/injection, schedule: Q01DX Z (ip), vehicle: saline) was 94 % of control and the T/C (dose: 5.0 mg/kg/injection, schedule: Q01DX Z (ip), vehicle: saline) was 98 % of control. For the same compound, the T/C (dose: 10.0 mg/kg/injection, schedule: Q01DX Z (ip), vehicle: saline) was 96 % of control.

For CC(C)CC(CC(C)C)NCC(C)OC(=O)c1ccc(N(C)C)cc1 (configuration not stated), the T/C (dose: 75.0 mg/kg/injection, schedule: Q01DX001 (ip), vehicle: other) was 101 % of control and the T/C (dose: 150.0 mg/kg/injection, schedule: Q01DX001 (ip), vehicle: other) was 106 % of control.

For CC(=O)Oc1cc(-c2ccccc2)c(OC(C)=O)cc1-c1ccccc1, the T/C (dose: 25.0 mg/kg/injection, schedule: Q01DX009 (ip), vehicle: water) was 96 % of control, the T/C (dose: 50.0 mg/kg/injection, schedule: Q01DX009 (ip), vehicle: water) was 101 % of control and the T/C (dose: 100.0 mg/kg/injection, schedule: Q01DX009 (ip), vehicle: water) was 94 % of control. For the same compound, the T/C (dose: 200.0 mg/kg/injection, schedule: Q01DX009 (ip), vehicle: water) was 101 % of control and the T/C (dose: 400.0 mg/kg/injection, schedule: Q01DX009 (ip), vehicle: water) was 100 % of control.

O=C/C(=C\C=C\c1ccc([N+](=O)[O-])cc1)c1ccccc1 was tested, and the T/C (dose: 75.0 mg/kg/injection, schedule: Q01DX001 (ip), vehicle: Klucel (hydroxypropylcellulose) (HPC)) was 86 % of control, the T/C (dose: 150.0 mg/kg/injection, schedule: Q01DX001 (ip), vehicle: Klucel (hydroxypropylcellulose) (HPC)) was 88 % of control and the T/C (dose: 300.0 mg/kg/injection, schedule: Q01DX001 (ip), vehicle: Klucel (hydroxypropylcellulose) (HPC)) was 89 % of control.

With COc1cc(OC(C)=O)c2ncccc2c1OC(C)=O the T/C [1] was 94 % of control.

For CC[n+]1ccc(Nc2ccc(/C=C/c3ccc4cc(Nc5cc[n+](CC)cc5)ccc4[n+]3CC)cc2)cc1, the T/C [2] was 112 % of control and 119 % of control and 120 % of control, the T/C [3] was 150 % of control and the T/C [4] was 182 % of control and 209 % of control. For the same compound, the T/C (dose: 12.5 mg/kg/injection, schedule: Q01DX001 (ip), vehicle: saline) was 100 % of control, the T/C (dose: 25.0 mg/kg/injection, schedule: Q01DX001 (ip), vehicle: saline) was 100 % of control and the T/C [5] was 112 % of control.

For O=C(O)/C=C/C(=O)OCCBr, the T/C (dose: 25.0 mg/kg/injection, schedule: Q04DX003 (ip), vehicle: saline) was 92 % of control, the T/C [6] was 100 % of control and the T/C (dose: 50.0 mg/kg/injection, schedule: Q04DX003 (ip), vehicle: saline) was 95 % of control. The T/C [7] was 115 % of control, the T/C [8] was 90 % of control and the T/C (dose: 200.0 mg/kg/injection, schedule: Q01DX009 (ip), vehicle: saline with Tween-80) was 97 % of control.

For CCCCCC(C[N+](C)(C)C)C(O)/C=C\c1ccccc1 (configuration not stated), the T/C [2] was 97 % of control, the T/C [3] was 97 % of control and the T/C (dose: 5.0 mg/kg/injection, schedule: Q04DX003 (ip), vehicle: saline) was 103 % of control. The T/C [4] was 99 % of control and the T/C (dose: 10.0 mg/kg/injection, schedule: Q04DX003 (ip), vehicle: saline) was 98 % of control.

For Cc1ccc(S(=O)(=O)N(C)c2ccc(C#N)c3ccccc23)cc1, the T/C [9] was 97 % of control, the T/C [10] was 89 % of control and the T/C [11] was 90 % of control.

For O=C(Cl)C12CCC(CC1)C1CCC2CC1, the T/C [8] was 86 % of control, the T/C [12] was 92 % of control and the T/C [13] was 97 % of control.

For Cc1c(Cl)cccc1NC(=O)c1ccc(Cl)cc1Cl, the T/C [14] was 92 % of control, the T/C [15] was 92 % of control and the T/C [16] was 94 % of control. The T/C [17] was 95 % of control, the T/C (dose: 400.0 mg/kg/injection, schedule: Q01DX009 (ip), vehicle: Klucel (hydroxypropylcellulose) (HPC)) was 91 % of control and the T/C [18] was 93 % of control.

For O=C(O)c1cc2oc3ccccc3c2cc1O, the T/C [14] was 94 % of control, the T/C [15] was 98 % of control and the T/C [16] was 100 % of control. The T/C [17] was 95 % of control and the T/C [18] was 93 % of control.

CCCCCCCCCCCCCCSc1ccc2ccccc2c1 was tested, and the T/C [15] was 92 % of control, the T/C [17] was 86 % of control and the T/C [18] was 87 % of control.

For COc1ccc(C)c(CN(C)C)c1, the T/C [5] was 107 % of control and the T/C [1] was 101 % of control.

With N#CCCO the T/C (dose: 25.0 mg/kg/injection, schedule: Q04DX002 (ip), vehicle: saline) was 98 % of control, the T/C (dose: 50.0 mg/kg/injection, schedule: Q04DX002 (ip), vehicle: saline) was 101 % of control and the T/C (dose: 100.0 mg/kg/injection, schedule: Q04DX002 (ip), vehicle: saline) was 110 % of control and 121 % of control. The T/C (dose: 200.0 mg/kg/injection, schedule: Q04DX002 (ip), vehicle: saline) was 96 % of control and the T/C (dose: 400.0 mg/kg/injection, schedule: Q04DX002 (ip), vehicle: saline) was 108 % of control.

In the case of O=C(O)CC[S-].[Ag+], the T/C (dose: 50.0 mg/kg/injection, schedule: Q04DX003 (ip), vehicle: other) is reported as 94 % of control, the T/C (dose: 75.0 mg/kg/injection, schedule: Q01DX009 (ip), vehicle: other) is reported as 98 % of control and the T/C (dose: 100.0 mg/kg/injection, schedule: Q01DX001 (ip), vehicle: other) is reported as 91 % of control. The T/C (dose: 100.0 mg/kg/injection, schedule: Q04DX003 (ip), vehicle: other) was 89 % of control, the T/C (dose: 150.0 mg/kg/injection, schedule: Q01DX009 (ip), vehicle: other) was 98 % of control and the T/C (dose: 200.0 mg/kg/injection, schedule: Q01DX001 (ip), vehicle: other) was 91 % of control. For the same compound, the T/C (dose: 200.0 mg/kg/injection, schedule: Q04DX003 (ip), vehicle: other) was 91 % of control and the T/C (dose: 300.0 mg/kg/injection, schedule: Q01DX009 (ip), vehicle: other) was 109 % of control.

O=C(O)C1CC=CCC1C(=O)O (configuration not stated) was tested, and the T/C (dose: 100.0 mg/kg/injection, schedule: Q01DX005 (ip), vehicle: saline) was 95 % of control, the T/C (dose: 100.0 mg/kg/injection, schedule: Q01DX009 (ip), vehicle: saline) was 108 % of control and the T/C [9] was 97 % of control. The T/C [8] was 94 % of control, the T/C (dose: 200.0 mg/kg/injection, schedule: Q01DX005 (ip), vehicle: saline) was 98 % of control and the T/C (dose: 200.0 mg/kg/injection, schedule: Q01DX009 (ip), vehicle: saline) was 118 % of control. For the same compound, the T/C [10] was 95 % of control, the T/C [12] was 91 % of control and the T/C (dose: 400.0 mg/kg/injection, schedule: Q01DX005 (ip), vehicle: saline) was 92 % of control. The T/C [11] was 91 % of control and the T/C [13] was 99 % of control.

With COC(=O)c1ccccc1N=NN(C)CC(C)C the T/C [6] was 110 % of control, the T/C (dose: 50.0 mg/kg/injection, schedule: Q04DX003 (ip), vehicle: saline with Tween-80) was 103 % of control and the T/C [7] was 121 % of control. The T/C [9] was 114 % of control.

For COC(=O)c1ccccc1C=O, the T/C (dose: 100.0 mg/kg/injection, schedule: Q01DX001 (ip), vehicle: saline with Tween-80) was 102 % of control and the T/C (dose: 200.0 mg/kg/injection, schedule: Q01DX001 (ip), vehicle: saline with Tween-80) was 107 % of control.
